Tested on: 755483-174-R-J1-PDC complex spheroid growth, percent test/control
Assay: Anticancer human tumor 755483-174-R-J1-PDC patient-derived rhabdomyosarcoma cell line growth inhibition [Asc]
Settings: for IC50: curve of first compound; for viability, T/C: stronger effect = lower value
Procedure, shortened: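 Tumor cells were grown as complex spheroids with human endothelial cells (HUVEC) and human mesenchymal stem cells as stroma. Agents were tested alone and in combination, in half-log steps down from the clinical Cmax, or from 10 microM where Cmax was unknown.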
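Note: spheroids exposed to compounds for seven days before readout.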

`Cc1nc(N2CCC3(CC2)COC(C)C3N)c(CO)nc1Sc1ccnc(N)c1Cl` (stereo unspecified) + Cc1c(S(C)(=O)=O)c(-c2cc(F)cc(N3CCN(c4ccc(NS(=O)(=O)c5ccc(NC(CCN6CCC(C(=O)OCCCP(=O)(O)O)CC6)CSc6ccccc6)c(S(=O)(=O)C(F)(F)F)c5)cc4)CC3)c2)c(-c2ccc(Cl)cc2)n1C(C)C gave an IC50 (second compound 0.1 µM) of under 9.49 nM, an IC50 (second compound 0.316 µM) of under 9.49 nM and an IC50 (second compound 1 µM) of under 9.49 nM. For the same molecule, the IC50 (second compound 3.16 µM) was under 9.49 nM, the IC50 (second compound 10 µM) was under 9.49 nM and the viability, T/C (second compound 0.1 µM, first compound 0.00949 µM) was 49.6%. The viability, T/C (second compound 0.1 µM, first compound 0.03 µM) was 46.2%, the viability, T/C (second compound 0.1 µM, first compound 0.0949 µM) was 40.3% and the viability, T/C (second compound 0.1 µM, first compound 0.3 µM) was 26.5%. It also gave a viability, T/C (second compound 0.1 µM, first compound 0.949 µM) of 14.2%, a viability, T/C (second compound 0.1 µM, first compound 3 µM) of 13.8% and a viability, T/C (second compound 0.316 µM, first compound 0.00949 µM) of 42.4%. It also gave a viability, T/C (second compound 0.316 µM, first compound 0.03 µM) of 43.5%, a viability, T/C (second compound 0.316 µM, first compound 0.0949 µM) of 34.6% and a viability, T/C (second compound 0.316 µM, first compound 0.3 µM) of 23%. It also gave a viability, T/C (second compound 0.316 µM, first compound 0.949 µM) of 12.7%, a viability, T/C (second compound 0.316 µM, first compound 3 µM) of 9.74% and a viability, T/C (second compound 1 µM, first compound 0.00949 µM) of 33.5%. It also gave a viability, T/C (second compound 1 µM, first compound 0.03 µM) of 33.9%, a viability, T/C (second compound 1 µM, first compound 0.0949 µM) of 38.6% and a viability, T/C (second compound 1 µM, first compound 0.3 µM) of 21.9%. For the same molecule, the viability, T/C (second compound 1 µM, first compound 0.949 µM) was 17.7%, the viability, T/C (second compound 1 µM, first compound 3 µM) was 10.4% and the viability, T/C (second compound 3.16 µM, first compound 0.00949 µM) was 26.5%. The viability, T/C (second compound 3.16 µM, first compound 0.03 µM) was 47.5%, the viability, T/C (second compound 3.16 µM, first compound 0.0949 µM) was 26.4% and the viability, T/C (second compound 3.16 µM, first compound 0.3 µM) was 21.2%. For the same molecule, the viability, T/C (second compound 3.16 µM, first compound 0.949 µM) was 16.8%, the viability, T/C (second compound 3.16 µM, first compound 3 µM) was 10.5% and the viability, T/C (second compound 10 µM, first compound 0.00949 µM) was 33.3%. The viability, T/C (second compound 10 µM, first compound 0.03 µM) was 36%, the viability, T/C (second compound 10 µM, first compound 0.0949 µM) was 25.8% and the viability, T/C (second compound 10 µM, first compound 0.3 µM) was 23.6%. For the same molecule, the viability, T/C (second compound 10 µM, first compound 0.949 µM) was 9.38% and the viability, T/C (second compound 10 µM, first compound 3 µM) was 6.34%.

Work on `O=C(c1ccc(F)c(F)c1Nc1ccc(I)cc1F)N1CC(O)([C@@H]2CCCCN2)C1` + CCN1C(C(=O)NC23CCC(C(=O)O)(CC2)CC3)C(c2cccc(Cl)c2F)C2(C(=O)Nc3cc(Cl)ccc32)C12CCCCC2 yielded an IC50 (second compound 0.03 µM) of 534 nM, an IC50 (second compound 0.0949 µM) of 338 nM and an IC50 (second compound 0.3 µM) of 426 nM. The IC50 (second compound 0.949 µM) was 273 nM, the IC50 (second compound 3 µM) was 329 nM and the viability, T/C (second compound 0.03 µM, first compound 0.00316 µM) was 85.3%. It also gave a viability, T/C (second compound 0.03 µM, first compound 0.01 µM) of 108%, a viability, T/C (second compound 0.03 µM, first compound 0.0316 µM) of 95.4% and a viability, T/C (second compound 0.03 µM, first compound 0.1 µM) of 99.2%. The viability, T/C (second compound 0.03 µM, first compound 0.316 µM) was 78.3%, the viability, T/C (second compound 0.03 µM, first compound 1 µM) was 16% and the viability, T/C (second compound 0.0949 µM, first compound 0.00316 µM) was 113%. It also gave a viability, T/C (second compound 0.0949 µM, first compound 0.01 µM) of 124%, a viability, T/C (second compound 0.0949 µM, first compound 0.0316 µM) of 117% and a viability, T/C (second compound 0.0949 µM, first compound 0.1 µM) of 93.5%. It also gave a viability, T/C (second compound 0.0949 µM, first compound 0.316 µM) of 53%, a viability, T/C (second compound 0.0949 µM, first compound 1 µM) of 18.6% and a viability, T/C (second compound 0.3 µM, first compound 0.00316 µM) of 109%. It also gave a viability, T/C (second compound 0.3 µM, first compound 0.01 µM) of 109%, a viability, T/C (second compound 0.3 µM, first compound 0.0316 µM) of 102% and a viability, T/C (second compound 0.3 µM, first compound 0.1 µM) of 118%. For the same molecule, the viability, T/C (second compound 0.3 µM, first compound 0.316 µM) was 61%, the viability, T/C (second compound 0.3 µM, first compound 1 µM) was 18.2% and the viability, T/C (second compound 0.949 µM, first compound 0.00316 µM) was 126%. For the same molecule, the viability, T/C (second compound 0.949 µM, first compound 0.01 µM) was 127%, the viability, T/C (second compound 0.949 µM, first compound 0.0316 µM) was 134% and the viability, T/C (second compound 0.949 µM, first compound 0.1 µM) was 121%. It also gave a viability, T/C (second compound 0.949 µM, first compound 0.316 µM) of 39.8%, a viability, T/C (second compound 0.949 µM, first compound 1 µM) of 18.3% and a viability, T/C (second compound 3 µM, first compound 0.00316 µM) of 104%. The viability, T/C (second compound 3 µM, first compound 0.01 µM) was 120%, the viability, T/C (second compound 3 µM, first compound 0.0316 µM) was 90% and the viability, T/C (second compound 3 µM, first compound 0.1 µM) was 97.5%. For the same molecule, the viability, T/C (second compound 3 µM, first compound 0.316 µM) was 50.3% and the viability, T/C (second compound 3 µM, first compound 1 µM) was 16.4%.

In the case of `Cc1c(S(C)(=O)=O)c(-c2cc(F)cc(N3CCN(c4ccc(NS(=O)(=O)c5ccc(NC(CCN6CCC(C(=O)OCCCP(=O)(O)O)CC6)CSc6ccccc6)c(S(=O)(=O)C(F)(F)F)c5)cc4)CC3)c2)c(-c2ccc(Cl)cc2)n1C(C)C` (stereo unspecified), the viability, T/C (compound 10 µM) is reported as 41.7% [middle of 14 runs].
